Laboratory results: US10894036B2, “Use of marizomib for the treatment of central nervous system (CNS) cancers” (Celgene International II Sàrl, priority 2016, dated 2021)

Experiment: Phase 1/2 MRZ + BEV and MRZ monotherapy in recurrent G4 MG: adverse events, DLT
[1] = MRZ+BEV, 36 pts, as of 12 Sep. 2016

Procedure: The clinical trial was a Phase 1, dose-escalation (3+3 design) followed by dose-expansion at recommended Phase 2 Dose (RP2D).
The drugs were infused on 28-Day Cycles. Tumor response is assessed every other cycle by RANO criteria.
The safety data will be presented in individual listings and summary tables, including frequency tables for adverse events and frequency and shift tables for laboratory variables. The safety population will be all subjects who received at least one dose of either study drug in Phase 1 or MRZ in Phase 2.

C[C@@]12OC(=O)[C@]1([C@@H](O)[C@@H]1C=CCCC1)NC(=O)[C@@H]2CCCl [marizomib]
confusional state, marizomib-related adverse events ≥3, patients (MRZ + BEV, N = 36): 3
headache, marizomib-related adverse events ≥3, patients (MRZ + BEV, N = 36): 3
patients with marizomib-related serious adverse events (MRZ + BEV, N = 36): Four
Anaemia: # pts, related to MRZ (MRZ+BEV, 12 Sep. 2016): 6
Anxiety: # pts, related to MRZ (MRZ+BEV, 12 Sep. 2016): 0
Aphasia: # pts, related to MRZ (MRZ+BEV, 12 Sep. 2016): 0
Appendicitis Perforated: # pts, related to MRZ (MRZ+BEV, 12 Sep. 2016): 0
Asthenia: # pts, related to MRZ (MRZ+BEV, 12 Sep. 2016): 0
Ataxia: # pts, related to MRZ (MRZ+BEV, 12 Sep. 2016): 6
Confusional State: # pts, related to MRZ (MRZ+BEV, 12 Sep. 2016): 6
Constipation: # pts, related to MRZ (MRZ+BEV, 12 Sep. 2016): 4
Convulsion: # pts, related to MRZ (MRZ+BEV, 12 Sep. 2016): 0
Delusion: # pts, related to MRZ (MRZ+BEV, 12 Sep. 2016): 1
Depressed Level of Consciousness: # pts, related to MRZ (MRZ+BEV, 12 Sep. 2016): 0
Diarrhoea: # pts, related to MRZ (MRZ+BEV, 12 Sep. 2016): 9
Dizziness: # pts, related to MRZ (MRZ+BEV, 12 Sep. 2016): 8
Dysarthria: # pts, related to MRZ (MRZ+BEV, 12 Sep. 2016): 1
Dysphagia: # pts, related to MRZ (MRZ+BEV, 12 Sep. 2016): 0
Dysphonia: # pts, related to MRZ (MRZ+BEV, 12 Sep. 2016): 0
Dyspnoea: # pts, related to MRZ (MRZ+BEV, 12 Sep. 2016): 0
Ear Infection: # pts, related to MRZ (MRZ+BEV, 12 Sep. 2016): 0
Embolism: # pts, related to MRZ (MRZ+BEV, 12 Sep. 2016): 0
Epistaxis: # pts, related to MRZ (MRZ+BEV, 12 Sep. 2016): 0
Falls: # pts, related to MRZ (MRZ+BEV, 12 Sep. 2016): 3
Fatigue: # pts, related to MRZ (MRZ+BEV, 12 Sep. 2016): 1
Fracture of Femur: # pts, related to MRZ (MRZ+BEV, 12 Sep. 2016): 0
Haemorrhage Intracranial: # pts, related to MRZ (MRZ+BEV, 12 Sep. 2016): 0
Hallucination: # pts, related to MRZ (MRZ+BEV, 12 Sep. 2016): 11
Headache: # pts, related to MRZ (MRZ+BEV, 12 Sep. 2016): 5
Hemiparesis: # pts, related to MRZ (MRZ+BEV, 12 Sep. 2016): 0
Hyperglycemia: # pts, related to MRZ (MRZ+BEV, 12 Sep. 2016): 0
Hypertension: # pts, related to MRZ (MRZ+BEV, 12 Sep. 2016): 0
Hypokalemia: # pts, related to MRZ (MRZ+BEV, 12 Sep. 2016): 0
Hyponatremia: # pts, related to MRZ (MRZ+BEV, 12 Sep. 2016): 1
Hypotension: # pts, related to MRZ (MRZ+BEV, 12 Sep. 2016): 0
Infusion Site Pain: # pts, related to MRZ (MRZ+BEV, 12 Sep. 2016): 6
Insomnia: # pts, related to MRZ (MRZ+BEV, 12 Sep. 2016): 1
Lymphocyte Count Decreased: # pts, related to MRZ (MRZ+BEV, 12 Sep. 2016): 0
Muscular Weakness: # pts, related to MRZ (MRZ+BEV, 12 Sep. 2016): 2
Nausea: # pts, related to MRZ (MRZ+BEV, 12 Sep. 2016): 19
Optic Nerve Disorder: # pts, related to MRZ (MRZ+BEV, 12 Sep. 2016): 0
Pyramidal Tract Syndrome: # pts, related to MRZ (MRZ+BEV, 12 Sep. 2016): 0
Tumor Metastasis: # pts, related to MRZ (MRZ+BEV, 12 Sep. 2016): 0
Vision Blurred: # pts, related to MRZ (MRZ+BEV, 12 Sep. 2016): 3
Vomiting: # pts, related to MRZ (MRZ+BEV, 12 Sep. 2016): 12
Anaemia: # events related to MRZ (MRZ+BEV, 17 May 2016): 9
Aphasia: # events related to MRZ (MRZ+BEV, 17 May 2016): 0
Appendicitis Perforated: # events related to MRZ (MRZ+BEV, 17 May 2016): 0
Asthenia: # events related to MRZ (MRZ+BEV, 17 May 2016): 0
Ataxia: # events related to MRZ (MRZ+BEV, 17 May 2016): 10
Confusional State: # events related to MRZ (MRZ+BEV, 17 May 2016): 8
Constipation: # events related to MRZ (MRZ+BEV, 17 May 2016): 5
Convulsion: # events related to MRZ (MRZ+BEV, 17 May 2016): 0
Delusion: # events related to MRZ (MRZ+BEV, 17 May 2016): 1
Diarrhoea: # events related to MRZ (MRZ+BEV, 17 May 2016): 12
Dizziness: # events related to MRZ (MRZ+BEV, 17 May 2016): 13
Dysarthria: # events related to MRZ (MRZ+BEV, 17 May 2016): 1
Dysphagia: # events related to MRZ (MRZ+BEV, 17 May 2016): 0
Dysphonia: # events related to MRZ (MRZ+BEV, 17 May 2016): 0
Dyspnoea: # events related to MRZ (MRZ+BEV, 17 May 2016): 0
Ear Infection: # events related to MRZ (MRZ+BEV, 17 May 2016): 0
Embolism: # events related to MRZ (MRZ+BEV, 17 May 2016): 0
Epistaxis: # events related to MRZ (MRZ+BEV, 17 May 2016): 0
Fatigue: # events related to MRZ (MRZ+BEV, 17 May 2016): 1
Haemorrhage Intracranial: # events related to MRZ (MRZ+BEV, 17 May 2016): 0
Hallucination: # events related to MRZ (MRZ+BEV, 17 May 2016): 16
Headache: # events related to MRZ (MRZ+BEV, 17 May 2016): 6
Hemiparesis: # events related to MRZ (MRZ+BEV, 17 May 2016): 0
Hyperglycemia: # events related to MRZ (MRZ+BEV, 17 May 2016): 0
Hypertension: # events related to MRZ (MRZ+BEV, 17 May 2016): 0
Hypokalemia: # events related to MRZ (MRZ+BEV, 17 May 2016): 1
Hypotension: # events related to MRZ (MRZ+BEV, 17 May 2016): 0
Insomnia: # events related to MRZ (MRZ+BEV, 17 May 2016): 1
Lymphocyte Count Decreased: # events related to MRZ (MRZ+BEV, 17 May 2016): 0
Muscular Weakness: # events related to MRZ (MRZ+BEV, 17 May 2016): 3
Nausea: # events related to MRZ (MRZ+BEV, 17 May 2016): 36
Pyramidal Tract Syndrome: # events related to MRZ (MRZ+BEV, 17 May 2016): 0
Vomiting: # events related to MRZ (MRZ+BEV, 17 May 2016): 16
Anaemia: # patients, AE related to labelled agent (BEV, MRZ, Both) [1]: 6
Anxiety: # patients, AE related to labelled agent (BEV, MRZ, Both) [1]: 0
Aphasia: # patients, AE related to labelled agent (BEV, MRZ, Both) [1]: 0
Appendicitis Perforated: # patients, AE related to labelled agent (BEV, MRZ, Both) [1]: 0
Asthenia: # patients, AE related to labelled agent (BEV, MRZ, Both) [1]: 0
Ataxia: # patients, AE related to labelled agent (BEV, MRZ, Both) [1]: 6
Confusional State: # patients, AE related to labelled agent (BEV, MRZ, Both) [1]: 6
Constipation: # patients, AE related to labelled agent (BEV, MRZ, Both) [1]: 4
Convulsion: # patients, AE related to labelled agent (BEV, MRZ, Both) [1]: 0
Delusion: # patients, AE related to labelled agent (BEV, MRZ, Both) [1]: 1
Depressed Level of Consciousness: # patients, AE related to labelled agent (BEV, MRZ, Both) [1]: 0
Diarrhoea: # patients, AE related to labelled agent (BEV, MRZ, Both) [1]: 9
Dizziness: # patients, AE related to labelled agent (BEV, MRZ, Both) [1]: 8
Dysarthria: # patients, AE related to labelled agent (BEV, MRZ, Both) [1]: 1
Dysphagia: # patients, AE related to labelled agent (BEV, MRZ, Both) [1]: 0
Dysphonia: # patients, AE related to labelled agent (BEV, MRZ, Both) [1]: 0
Dyspnoea: # patients, AE related to labelled agent (BEV, MRZ, Both) [1]: 0
Ear Infection: # patients, AE related to labelled agent (BEV, MRZ, Both) [1]: 0
Embolism: # patients, AE related to labelled agent (BEV, MRZ, Both) [1]: 0
Epistaxis: # patients, AE related to labelled agent (BEV, MRZ, Both) [1]: 0
Falls: # patients, AE related to labelled agent (BEV, MRZ, Both) [1]: 3
Fatigue: # patients, AE related to labelled agent (BEV, MRZ, Both) [1]: 1
Fracture of Femur: # patients, AE related to labelled agent (BEV, MRZ, Both) [1]: 0
Haemorrhage Intracranial: # patients, AE related to labelled agent (BEV, MRZ, Both) [1]: 0
Hallucination: # patients, AE related to labelled agent (BEV, MRZ, Both) [1]: 11
Headache: # patients, AE related to labelled agent (BEV, MRZ, Both) [1]: 5
Hemiparesis: # patients, AE related to labelled agent (BEV, MRZ, Both) [1]: 0
Hyperglycemia: # patients, AE related to labelled agent (BEV, MRZ, Both) [1]: 0
Hypertension: # patients, AE related to labelled agent (BEV, MRZ, Both) [1]: 0
Hypokalemia: # patients, AE related to labelled agent (BEV, MRZ, Both) [1]: 0
Hyponatremia: # patients, AE related to labelled agent (BEV, MRZ, Both) [1]: 1
Hypotension: # patients, AE related to labelled agent (BEV, MRZ, Both) [1]: 0
Infusion Site Pain: # patients, AE related to labelled agent (BEV, MRZ, Both) [1]: 6
Insomnia: # patients, AE related to labelled agent (BEV, MRZ, Both) [1]: 1
Lymphocyte Count Decreased: # patients, AE related to labelled agent (BEV, MRZ, Both) [1]: 0
Muscular Weakness: # patients, AE related to labelled agent (BEV, MRZ, Both) [1]: 2
Nausea: # patients, AE related to labelled agent (BEV, MRZ, Both) [1]: 19
Optic Nerve Disorder: # patients, AE related to labelled agent (BEV, MRZ, Both) [1]: 0
Pyramidal Tract Syndrome: # patients, AE related to labelled agent (BEV, MRZ, Both) [1]: 0
Tumor Metastasis: # patients, AE related to labelled agent (BEV, MRZ, Both) [1]: 0
Vision Blurred: # patients, AE related to labelled agent (BEV, MRZ, Both) [1]: 3
Vomiting: # patients, AE related to labelled agent (BEV, MRZ, Both) [1]: 12
tolerability (in combination with BEV and as monotherapy): generally well tolerated
